Source: ChEMBL document CHEMBL2073830, “A novel inhibitor of the mammalian peptide transporter PEPT1” (Biochemistry, 2001)
Non-standard residues stand in square brackets, D forms with d. Residues, ends and D or L forms follow the SMILES beside them. *: point of attachment. Cbz = O=C(OCc1ccccc1)*

Biological target: T1, Solute carrier family 15 member 1 (Homo sapiens, UniProt P46059)
T1 sequence (P46059 whole entry): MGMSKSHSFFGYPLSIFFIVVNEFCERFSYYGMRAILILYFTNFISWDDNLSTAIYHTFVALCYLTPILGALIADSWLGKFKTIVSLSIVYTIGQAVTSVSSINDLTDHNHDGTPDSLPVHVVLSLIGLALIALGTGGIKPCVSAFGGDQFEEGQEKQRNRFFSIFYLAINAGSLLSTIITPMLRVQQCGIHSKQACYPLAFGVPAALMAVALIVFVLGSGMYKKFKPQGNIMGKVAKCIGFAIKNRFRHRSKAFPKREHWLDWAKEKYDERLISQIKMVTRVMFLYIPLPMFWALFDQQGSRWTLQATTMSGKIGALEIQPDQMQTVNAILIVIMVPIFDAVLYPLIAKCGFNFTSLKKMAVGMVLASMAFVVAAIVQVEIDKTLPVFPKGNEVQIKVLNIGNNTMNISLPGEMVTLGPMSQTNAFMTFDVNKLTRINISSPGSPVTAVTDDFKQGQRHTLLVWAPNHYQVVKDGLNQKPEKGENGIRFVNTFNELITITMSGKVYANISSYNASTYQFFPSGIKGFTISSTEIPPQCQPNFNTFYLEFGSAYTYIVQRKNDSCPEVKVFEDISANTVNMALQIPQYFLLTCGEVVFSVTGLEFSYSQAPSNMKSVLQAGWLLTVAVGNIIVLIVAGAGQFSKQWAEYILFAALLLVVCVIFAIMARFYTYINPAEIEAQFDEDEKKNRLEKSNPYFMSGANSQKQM
Assay: TP_TRANSPORTER: inhibition of Gly-Sar uptake in Caco-2 cells
Format: functional, cell-based

Row | Ki | Structure (SMILES)
1 | 19 µM | N[C@@H](CCCCNC(=O)OCc1ccc([N+](=O)[O-])cc1)C(=O)N1CCC[C@H]1C(=O)O
2 | 33 µM | NCCCC[C@H](NC(=O)OCc1ccccc1)C(=O)N1CCC[C@H]1C(=O)O (Cbz-Lys-Pro-OH)
3 | 350 µM | NCCCC[C@H](N)C(=O)N1CCC[C@@H]1C(=O)O (H-Lys-[dP]-OH)
